Patent US9138659B2, “Compositions, methods, and systems relating to controlled crystallization and/or nucleation of molecular species” (Massachusetts Institute of Technology, priority 2010, dated 2015)

Assays:
[1] = Nucleation induction time of aspirin on crosslinked polymer plates (non-porous and porous); assay type: physicochemical; conditions: for average induction time τ from linear fit ln(P)=−t/τ: bulk polymerization
Description: To further quantify the surface chemistry effect on nucleation kinetics, nucleation induction time distribution was measured with the API of interest. Nucleation induction time is an indicator of the surface nucleation activity because it can be shortened when the presence of a surface lowers the free energy barrier of nucleation. Due to the stochastic nature of nucleation events, a significant number of experiments were performed to obtain the probability distribution of nucleation induction time.
As an example of induction time measurements, polymer plates were prepared by UV polymerizing the mixture of a monomer and the crosslinker divinylbenzene held by Teflon holders. Subsequent drying under vacuum removed unreacted monomer molecules. Monomers used to synthesize polymer plates were 4-Acryloylmorpholine (AM), 4-Hydroxybutyl acrylate (HBA), 2-Carboxyethyl acrylate (CEA), and styrene (STY). AM, HBA, and CEA served as positive controls, whilst STY a negative control. Each polymer plate was inserted together with the Teflon holder vertically into the aspirin solution, and then the solution was quenched to initiate nucleation. The starting concentration and the nucleation temperature were chosen such that the supersaturation produced was high enough to give reasonably short induction time but low enough to suppress bulk nucleation. 48 vials of each polymer sample were tested simultaneously and the fraction of vials crystallized was recorded as a function of time to produce a plot of cumulative probability distribution of induction time, as shown in FIG. 4.
In FIG. 4: Cumulative probability distribution of nucleation induction time (a) and statistical analysis on the same data sets (b) obtained with polymers synthesized via bulk polymerization. Crystallization of aspirin was performed at supersaturation S=4.75. The linear regression in […] follows the formula ln(P)=−t/τ to obtain the average induction time τ. P is the probability for no crystallization event to occur within time t. […] The results of linear fitting are i) STY ln(P)=−t/243.9, R^2=0.987; ii) CEA ln(P)=−t/113.6, R^2=0.978; iii) HBA ln(P)=−t/38.2, R^2=0.995.
For example, by the PIPS method, the mixture of a monomer and the crosslinker divinylbenzene dissolved in ethanol was subjected to UV irradiation to initiate the polymerization. As the molecular weight of the polymer increases to a critical point, dynamic asymmetry between solvent molecules and the polymer lead to nucleation and growth of solvent-rich regions within the polymer matrix. Subsequent evaporation of the solvent during the vacuum drying leaves pores on the polymer films. One common feature shared by most porous surfaces is a raised edge surrounding the pore region, which may be a sign of eruptional behavior caused by fast solvent evaporation under vacuum. As determined by AFM, the pores found on polymer sample AM were around 100 nm in width and 4 nm in depth. Comparatively, polymer sample HBA carried pores about 50 nm in width and 5-8 nm in depth. The non-porous AM and HBA samples were synthesized by bulk polymerization method and used as a control and had relatively smooth surfaces despite a few impurities.

[2] = Equilibrium partitioning of ASA / ACM into PEGDA and PEGDA-co-AM gels; assay type: physicochemical
Description: This theory is exemplified by quantifying the partitioning of aspirin between the PEGDA gel phase and 38/62 ethanol/water (v/v), and determining the concentration of aspirin in the hydrogel particles. The partitioning experiments were performed at the same solution concentration and temperature as in the nucleation induction time experiments. In the partitioning experiment, both the concentrations of aspirin and ethanol were measured, as there are three species in the bulk solution, namely aspirin, ethanol and water, all of which partition in the gel phase to a certain degree determined by their relative interaction with the PEGDA polymer matrix.
Composition of aspirin solution in the PEGDA gel phase were compared with the bulk phase. PEGDA gels sufficiently large for convenient handling were synthesized by UV polymerization, following the same formulation as the synthesis of PEGDA particles used in the crystallization study. The PEGDA gels were washed with ethanol and vacuum dried to remove unreacted species. The gel was then immersed in excessive 38 mg/ml aspirin solution in 38/62 ethanol/water (v/v) and allowed sufficient time to reach equilibrium swelling at 15° C. before taken out, pad dried, and put in excessive water. After 5 hours immersed in water, the concentrations of aspirin and ethanol in the aqueous phase were analyzed by UV-Vis spectroscopy and Gas Chromatography, respectively.
In FIG. 10: Partitioning of aspirin vs. acetaminophen in the PEGDA gel. Y axis represents the relative API concentration in the PEGDA, normalized by the bulk concentration. The aspirin partitioning experiment was conducted in 38 mg/ml aspirin solution in 38/62 ethanol/water (v/v) at 15° C. As for acetaminophen, 95 mg/ml acetaminophen solution in 38/62 ethanol/water (v/v) was used and the equilibration temperature was 8° C. In both cases, the experimental conditions were kept the same as used in the nucleation induction time study.
Quantification of polymer-solute interactions: The strength of intermolecular interactions between the PEGDA-co-AM polymer network and the molecule to crystallize was characterized with the solute equilibrium partition coefficient at the same condition as used in the crystallization study. Solute partition coefficient κ, defined as the ratio of solute mass fraction in solution confined in the gel to that in the bulk, is a relevant parameter because it informs the solute concentration in the gel at the crystallization condition, which is an important factor affecting nucleation. […] The PEGDA polymers are comprised of the PEG subchain and the acrylate crosslinkers.
Partition coefficient measurements: Partition coefficients of ASA in PEGDA-co-AM gels from its bulk solution were determined as follows. In brief, a series of gels with varying mesh sizes of approximately 5 mm in diameter and 0.5 mm in thickness were synthesized via UV polymerization following the same formula as used in the microgel synthesis. The residue solvent, porogen and monomer molecules were removed by extensive washing with solvent ethanol and subsequent vacuum drying. The dry gels were then immersed in excessive volume of 38 mg/ml ASA solution in 38/62 (v/v) ethanol/water at 15° C. for overnight.

Compound: CC(=O)Oc1ccccc1C(=O)O [aspirin]
- average induction time τ from linear fit ln(P)=−t/τ ([1]; CEA polymer, S=4.75, FIG. 4, in h): 113.6
- average induction time τ from linear fit ln(P)=−t/τ ([1]; HBA polymer, S=4.75, FIG. 4): 38.2 h
- average induction time τ from linear fit ln(P)=−t/τ ([1]; STY polymer, S=4.75, FIG. 4, in h): 243.9
- Average induction time τ ([1]; non-porous AM polymer, S = 4.75): 38.2 h
- Average induction time τ ([1]; non-porous HBA polymer, S = 4.75): 243.9 h
- Average induction time τ ([1]; porous AM polymer, S = 4.2): 8.8 h
- Average induction time τ ([1]; porous HBA polymer, S = 4.2): 54.6 h
- increase of κ after introducing AM into the PEGDA gel ([2]; ASA, on average): 60%
- molar ratio of ethylene oxide units in PEG to ASA ([2]; PEGDA gels, all mesh sizes, calculated from the partition experiments): 7.7
- AM to ASA molar ratio ([2]; PEGDA-co-AM gels): around unity
- ASA concentration in the PEGDA-co-AM gels relative to bulk solution ([2]; PEGDA-co-AM gels): as high as six times
- aspirin concentration in PEGDA particles with respect to the bulk ([2]; all PEGDA particles, 38 mg/ml in 38/62 ethanol/water, 15° C): more than three times
